Results as given in patent publication US20160106723A1, “METHODS TO SENSE AND TREAT SUBCLINICAL SKIN DAMAGE” (priority 2014, published 2016).

What was measured:
[1] = test system: subclinical skin damage in unblemished skin; test: Topical treatment of unblemished skin of participants, observed skin reaction (photographs); format: in vivo, human; conditions: participant
Text: The response of sun or UV damaged cells to Imiquimod in these non-suspicious areas are indicative of altered cells. Clearly subclinical skin damage or AK may exist in the skin but may not be clinically evident in their early development as appearing in FIGS. 1A, 2A, 3A, 4A, 5A, 6A, and 7A.
The detailed method of treatment of subclinical skin damage and of inducing an immune cell response in unblemished skin involves topical application of formulation essentially comprising Imiquimod in an effective amount during a cycle of therapy that is in the range of two to four weeks; and observing the skin for the response; wherein the composition is administered once or twice daily during the cycle of therapy, which is repeated at least once on a substantially annual basis.

[2] = test system: normal human skin; conditions: cited from earlier work

CC(C)Cn1cnc2c(N)nc3ccccc3c21 [Imiquimod]
skin reaction after treatment ([1]; FIG. 1B, chest region, 11 days of treatment, strength about 3.75%): severe erythema
skin reaction after treatment ([1]; FIG. 2B, chest region, fourteen days of treatment, strength about 5.00%): moderate erythema
skin reaction after treatment ([1]; FIG. 3B, chest region, fourteen days of treatment, strength about 3.75%): moderate erythema
skin reaction after treatment ([1]; FIG. 5B, forehead region, fifteen days of treatment, strength about 3.75%): moderate reaction
skin reaction after treatment ([1]; FIG. 6B, scalp region, ten days of treatment, strength about 2.5%): moderate reaction
skin reaction after treatment ([1]; FIG. 7B, cheek region, fourteen days of treatment, strength about 2.5%): moderate reaction
skin reaction after treatment ([1]; FIG. 8A, cheek region, fourteen days of treatment, strength about 2.5%): moderate reaction
skin reaction after treatment ([1]; FIG. 8B and 8C, forehead region, fourteen days of treatment, strength about 2.5%): moderate reaction
skin reaction after treatment ([1]; FIGS. 4B and 4C, cheek region, twelve days of treatment, strength about 2.5%): mild reaction
effect on IL-10 production [2]: reduced IL-10 production
effect on resident T cells [2]: induced activation of resident T cells
